Patent publication US12540164B2, “Peptides for treatment and prevention of nonalcoholic fatty liver disease and fibrosis” (UNIVERSITE DE STRASBOURG, priority 2017, dated 2026)
“Also recorded” adds a separate entry of the source. Ends that are not written are not given here.

Experiments:
Collagen IV = assay: Immunostaining of kidney cryosections for Collagen IV; format: in vivo; settings: DIO(-NASH) mice 3 months post treatment; vs vehicle
Text: Cryosections of kidneys from DIO vehicle treated and DIO ADPIF treated mice 3 months post treatment, were immunostained for collage IV deposition and tight junction with a ZO-1 antibody to assess the effect of ADPIF peptide on fibrosis progression in other soft tissues. For immunofluorescence experiments, liver and kidneys freshly sampled were included in Optimal Cutting Temperature Compound™ (OCT™, Catalog #4583, Tissue-Tek® OCT™, Sakura® Finetek, Torrance, California, USA) and cryosections of 7 μm were cut with Cryostat Leica CM1950. Cryosections were washed with 1×PBS and fixated in 4% formaldehyde solution for 15 min (Catalog #: F555-4L, Sigma-Aldrich, Saint-Louis, Missouri, USA) and then permeabilized with 0.02% SDS-PBS for 30 seconds. Blocking solution was 5%-Bovine Serum Albumin (BSA) in PBS. Primary antibodies were diluted in blocking solution and incubated overnight and indicated secondary antibodies were diluted in PBS for 30 minutes. Nuclei were counterstained with Hoechst (Catalog #: D1306, Invitrogen, Carlsbad, California, USA). Slides were then mounted with Vectashield® Mounting Medium (Catalog #: H-1000, Vector Laboratories, Burlingame, California, USA). Images were acquired and analyzed with Zeiss Imager.Z2 microscope equipped with either Zeiss AxioVision or Zeiss ZEN 2012 software (Carl Zeiss Inc., Oberkochen, Germany). […]

[1] = STAM model of non-alcoholic steatohepatitis: Sirius red staining, fibrosis area; format: in vivo; settings: STAM NASH mice
Protocol: NASH was induced in 12 male mice by a single subcutaneous injection of 200 μg streptozotocin (STZ, Sigma-Aldrich, USA) solution 2 days after birth and feeding with high fat diet (HFD, 57 kcal % fat, Cat #HFD32, CLEA Japan, Inc., Japan) after 4 weeks of age. The peptide was administered subcutaneously in the adipose tissue in a volume of […] per mouse. The peptide was administered at a dose of 25 microgram (μg) per mouse once weekly. To visualize collagen deposition, Bouin's fixed liver sections were stained using picro-Sirius red solution (Waldeck, Germany). For quantitative analysis of fibrosis area, bright field images of Sirius red-stained sections were captured around the central vein using a digital camera (DFC295; Leica, Germany) at 200-fold magnification, and the positive areas in 5 fields/section were measured using ImageJ software (National Institute of Health, USA). Six NASH mice were subcutaneously in the adipose tissue administered vehicle supplemented with ADPIF peptide at a dose of […] per mouse once weekly from 4 to 9 weeks of age.

[2] = test system: fatty acid synthase (Fasn); assay: Hepatic expression of de novo lipogenesis gene Fasn (q-PCR); format: in vivo; settings: 11 days post injection in the adipose tissue; DIO male mice; vs control
Text: (§1) AdipoRed Staining of Liver Sections

[3] = test system: Sterol regulatory element binding transcription factor 1 (Srebf1); assay: Hepatic expression of Srebf1 (q-PCR); format: in vivo; settings: 11 days post injection in the adipose tissue; DIO male mice; vs control
Text: as §1

[4] = test system: AST (aspartate aminotransferase); assay: Plasma AST ELISA; format: in vivo, mice; settings: 3 months after a single subcutaneous peptide injection, n=4
Protocol: Mice presented were euthanized and their plasma and organs were sampled for analysis. […] Cryosection of the livers were then stained with Adipored and DAPI to detect the level of lipid droplets. […] Hepatic function is assessed by two liver related strong biomarkers namely (AST (Aspartate Aminotransferase) and ALT (Alanine Aminotransferase)), whose levels increase proportionately with liver damage.
Plasma samples from the indicated mice were used to determine plasma content of either AST (aspartate aminotransferase) or […] (alanine aminotransferase) both robust indicators of liver damage were measured using commercially purchased ELISA kits. These parameters were determined according to manufacturer's procedure. • SEB214Mu (96 Tests): Enzyme-linked Immunosorbent Assay Kit For Aspartate Aminotransferase (AST), Cloud Clone Corp. • SEA207Mu (96 Tests): Enzyme-linked Immunosorbent Assay Kit For Alanine Aminotransferase (ALT), Cloud Clone Corp.

[5] = STAM model of non-alcoholic steatohepatitis: body weight, viability and general condition; format: in vivo; settings: STAM NASH mice, any day during the treatment period
Protocol: NASH was induced in 12 male mice by a single subcutaneous injection of 200 μg streptozotocin (STZ, Sigma-Aldrich, USA) solution 2 days after birth and feeding with high fat diet (HFD, 57 kcal % fat, Cat #HFD32, CLEA Japan, Inc., Japan) after 4 weeks of age.
The peptide was administered at a dose of 25 microgram (μg) per mouse once weekly.
Six NASH mice were subcutaneously in the adipose tissue administered vehicle supplemented with ADPIF peptide at a dose of […] per mouse once weekly from 4 to 9 weeks of age.
The viability, clinical signs and behavior were monitored daily. Body weight was recorded before the treatment. […] The animals were sacrificed at 9 weeks of age by exsanguination through direct cardiac puncture under isoflurane anesthesia (Pfizer Inc.).

GLP-1 = assay: Circulating GLP-1 enzyme immunoassay in plasma; format: in vivo; settings: 11 days post single adipose tissue injection, high fat/high glucose diet male mice
Protocol: Mice were injected with a single dose of either scramble peptide or PATAD or ADPIF. 11 days post injection, the mice were euthanized, and plasma was obtained and used for determination of circulating GLP1 from mice with the indicated treatment.
(§2) For LOXL2 and GLP-1 measurements, the two commercially available kits: Lysyl Oxydase Like Protein 2 (LOXL2), Enzyme-linked Immunosorbent Assay Kit, Mus musculus, SEF552Mu, Cloud Clone Corp;
RayBio Human/Mouse/Rat GLP-1 Enzyme Immunoassay Kit, EIA-GLP1, RayBiotech were used with the indicated procedures from the manufacturer.

[6] = Glucose tolerance test (GTT) in diet induced obese mice; format: in vivo; settings: fasting male DIO mice, single injection at day 0; subcutaneous glucose bolus; AUC D-5 vs D+6
Protocol: These are results obtained from series of glucose tolerance test (GTT) and data from two-time points namely 30 minutes and 120 minutes were used to generate these curves for both control and PATAD treated diet induced obese (DIO) and diabetic wild type male C57/B6 mice (control).
For this study, mice were on a C57/BL6 genetic background. All animals were housed in a temperature and humidity controlled facility, with a 12 h-light/12 h-dark cycle fed during the whole phase mice will be fed with a 60% high fat diet from Research Diets (D12492), and tap water will be provided ad libitum. Mice were fed and tested regularly for glucose tolerance test for their glucose tolerance and once they were glucose intolerant they were used for treatment.

LOXL2 = assay: Circulating (plasma) LOXL2 ELISA; format: in vivo; settings: 3 months post a unique injection; DIO-NASH mice
Text: as §2

Sequence: VECTTREKEVLASLDKAAFLTQLHS (not fully specified (bridges)) [ADPIF, R and S carry the stapling, preferably 2-(7-octenyl)arginine and 2-(4-pentenyl)serine]
- Collagen IV depots in the kidney (immunostaining) (Collagen IV): clear reduction; also recorded: More depots of Collagen IV are observed in the DIO-NASH vehicle than in the ADPIF treated
- Sirius red-positive area (mean ± SD) ([1]; 25 μg per mouse SC once weekly 4-9 wks of age, sacrifice 9 wks, n = 6): 0.62 ± 0.17%
- fibrosis area (Sirius red-positive area) compared with the Vehicle group ([1]; 25 μg per mouse SC once weekly 4-9 wks, Student's t-test): significant decrease
- hepatic expression level of fatty acid synthase (Fasn) [2]: repressed; also recorded: significantly decreased
- hepatic expression level of Srebf1 [3]: repressed; also recorded: significantly decreased
- circulating levels of AST [4]: dramatic decrease; also recorded: effective in reducing
- mean body weight compared with the Vehicle group [5]: no significant differences
- circulating levels of GLP-1 (GLP-1): restored high circulating levels of GLP1, with ADPIF inducing a greater increase than PATAD; also recorded: more active than PATAD peptide; also recorded: restore GLP1 circulating levels back to lean controls
- glucose tolerance test / prevention of hyperglycemia [6]: better effect in glucose tolerance test than the PATAD peptide; also recorded: more active than PATAD peptide in preventing hyperglycemia
- circulation (plasma) levels of LOXL2 (LOXL2): significantly reduced; also recorded: reduced the LOXL2 levels by half
